# Experimental data reported in US20200341000A1, “METHOD OF SCREENING COMPOUNDS FOR TREATING CNS DISORDERS” (SAGE THERAPEUTICS, INC., priority 2017, published 2020).
# “Also recorded” adds a separate entry of the source.
# Key:
# [1] = test system: tonic current in dentate gyms granule cells (DGGCs); experiment: Sustained (metabotropic) enhancement of tonic current in DGGCs after 15 min exposure and washout; type: cell-based, mice; conditions: protocol as in FIG. 3; n=6-8 cells
# Description: Brain slices were prepared from 3- to 5-week-old male C57 mice. Mice were anesthetized with isoflurane, decapitated, and brains were rapidly removed and submerged in ice-cold cutting solution containing (mM): 126 NaCl, 2.5 KCl, 0.5 CaCl2, 2 MgCl2, 26 NaHCO3, 1.25 NaH2PO4, 10 glucose, 1.5 sodium pyruvate, and 3 kynurenic acid. Coronal 310 μm thick slices were cut with the vibratome VT1000S (Leica Microsystems, St Louis, Mo., USA). The slices were then transferred into incubation chamber filled with prewarmed (31-32° C.) oxygenated artificial cerebro-spinal fluid (ACSF) of the following composition (in mM): 126 NaCl, 2.5 KCl, 2 CaCl2, 2 MgCl2, 26 NaHCO3, 1.25 NaH2PO4, 10 glucose, 1.5 sodium pyruvate, 1 glutamine, 3 kynurenic acid and 0.005 GABA bubbled with 95% O2-5% CO2. Slices were allowed to recover at 32° C. for at least 1 hr before recording. Exogenous GABA was added in an attempt to standardize ambient GABA in the slice and provide an agonist source for newly inserted extrasynaptic GABAARs.
# After recovery, a single slice was transferred to a submerged, dual perfusion recording chamber (Warner Instruments, Hamden, Conn., USA) on the stage of an upright microscope (Nikon FN-1) with a 40× water immersion objective equipped with DIC/IR optics. Slices were maintained at 32° C. and gravity-superfused with ACSF solution throughout experimentation and perfused at rate of 2 ml/min with oxygenated (O2/CO2 95/5%) ACSF.
# Whole-cell currents were recorded from the dentate gyms granule cells (DGGCs) in 310-μm-thick coronal hippocampal slices. Patch pipettes (5-7MΩ) were pulled from borosilicate glass (World Precision Instruments) and filled with intracellular solution of the composition (in mM) as follows: 140 CsCl, 1 MgCl2, 0.1 EGTA, 10 HEPES, 2 Mg-ATP, 4 NaCl and 0.3 Na-GTP (pH=7.2 with CsOH). A 5 min period for stabilization after obtaining the whole-cell recording conformation (holding potential of −60 mV) was allowed before currents were recorded using an Axopatch 200B amplifier (Molecular Devices), low-pass filtered at 2 kHz, digitized at 20 kHz (Digidata 1440A; Molecular Devices), and stored for offline analysis.
# For tonic current measurements, an all-points histogram was plotted for a 10 s period before and during 100 μM picrotoxin application, once the response reached a plateau level. Recordings with unstable baselines were discarded. Fitting the histogram with a Gaussian distribution gave the mean baseline current amplitude and the difference between the amplitudes before and during picrotoxin was considered to be the tonic current. The negative section of the all-points histogram which corresponds to the inward IPSCs was not fitted with a Gaussian distribution (Kretschmannova et al., 2013; Nusser and Mody, 2002). Series resistance and whole-cell capacitance were continually monitored and compensated throughout the course of the experiment. Recordings were eliminated from data analysis if series resistance increased by >20%. Spontaneous inhibitory post-synaptic currents (sIPSCs) were analyzed using the mini-analysis software (version 5.6.4; Synaptosoft, Decatur, Ga.). Minimum threshold detection was set to 3 times the value of baseline noise signal. To assess sIPSC kinetics, the recording trace was visually inspected and only events with a stable baseline, sharp rising phase, and single peak were used to negate artifacts due to event summation. Only recordings with a minimum of 200 events fitting these criteria were analyzed. sIPSCs amplitude, and frequency from each experimental condition was pooled and expressed as mean±SEM. To measure sIPSC decay, 100 consecutive events were averaged and the decay was fitted to a double exponential and the weighted decay constant (tw) was determined. Statistical analysis was performed by using Student t-test (paired and unpaired where appropriate), where p<0.05 is considered significant.
# [2] = test system: GABA-evoked currents in GT1-7 cells; experiment: Patch-clamp of GABA-induced currents in GT1-7 cells, compound in the pipette electrolyte; type: cell-based; conditions: 100 nM in electrolyte, GABA EC20, 20 min time course
# Description: Patch-clamp recordings were made from GT1-7 cells. The magnitude of the GABA-induced currents (IGABA) at EC20 agonists concentration were then measured, in the presence of control electrolyte or that supplemented with 100 nM ALLO, or 100 nM ORG OD 02-0 over a time course of 20 min.
# [3] = test system: GABAA receptor β3 subunit S408/9 phosphorylation; experiment: Immunoblot of β3 S408/9 phosphorylation in hippocampal slices; type: cell-based, mice; conditions: 100 nM
# Description: Hippocampi were dissected out of acute slices from 8 to 12 week old C57/B16 mice and lysed with phosphate buffer including: 20 mM Tris-HCl, 150 mM NaCl, 5 mM EDTA, 10 mM NaF, 2 mM Na3VO4, 10 mM pyrophosphate, 0.1% SDS and 1% Triton after drug treatment. The β3 subunit was isolated using immunoprecipitation with β3 antibodies, after correction for protein content and the specific activity of labeling. Results were attained by SDS/PAGE followed by autoradiography (Abramian et al., 2010). For biotinylation experiments hippocampi were dissected out of acute slices from 8 to 12 week old C57/B16 mice and incubated in artificial cerebrospinal fluid (ACSF) described above at 30° C. for 1 h for recovery before experimentation. Slices were then placed on ice and incubated for 30 min with 1 mg/mL NHS-SS-biotin (Pierce). Excess biotin was removed by a 50 mM glycine quenching buffer, followed by washing of slices three times in ice-cold ACSF. The tissue was snap frozen on dry ice for 5 min, thawed at 4° C. and lysed. The lysates were solubilized with 2% Triton at 4° C. on a rotating wheel for 1 h. The insoluble material was removed by centrifugation, and 350-500 μg of protein lysate were incubated with NeutrAvidin beads (Pierce) for 18-24 h at 4° C. Bound material was eluted with sample buffer and subjected to SDS/PAGE and then immunoblotted with the indicated antibodies. Blots were then quantified using the CCD-based ChemiDoc XRS ? system. Antibodies against the β3 subunit and the phospho-β3 antibody were generated and verified by the laboratory of S.J.M. (Vien et al., 2015).
# To produce antibodies specific for phosphorylated S443, rabbits were injected with a synthetic peptide corresponding to residues […] of the murine α4 subunit in which the serine residue corresponding to S443 was chemically phosphorylated; […]. Hippocampal slices were treated with vehicle (Con), or SGE-516 for 20 min. Slices were immunoblotted with pS408/9, β3, or actin antibodies. The ratio of pS408/9/β3 immunoreactivity was then normalized to control slices (100%=the line).
# Hippocampal slices were treated with 100 nM ALLO or P4 (progesterone), and S408/9 phosphorylation was then determined as detailed above, n=4 slices (FIG. 18D). Hippocampal slices were treated with 100 nM ORG (FIG. 18E). S408/9 phosphorylation was examined using immunoblotting.
# [4] = target: T1, GABAARs composed of α4β3 subunits (Homo sapiens, UniProt P28472+P48169); experiment: Acute modulation of GABA-induced currents in HEK-293 cells; type: cell-based; design: dose or concentration left out as unconfirmed; conditions: rapidly applied with GABA
# T1 construct: expressed in transfected cells; host or cells: HEK-293
# T1 sequence (P48169 36-554): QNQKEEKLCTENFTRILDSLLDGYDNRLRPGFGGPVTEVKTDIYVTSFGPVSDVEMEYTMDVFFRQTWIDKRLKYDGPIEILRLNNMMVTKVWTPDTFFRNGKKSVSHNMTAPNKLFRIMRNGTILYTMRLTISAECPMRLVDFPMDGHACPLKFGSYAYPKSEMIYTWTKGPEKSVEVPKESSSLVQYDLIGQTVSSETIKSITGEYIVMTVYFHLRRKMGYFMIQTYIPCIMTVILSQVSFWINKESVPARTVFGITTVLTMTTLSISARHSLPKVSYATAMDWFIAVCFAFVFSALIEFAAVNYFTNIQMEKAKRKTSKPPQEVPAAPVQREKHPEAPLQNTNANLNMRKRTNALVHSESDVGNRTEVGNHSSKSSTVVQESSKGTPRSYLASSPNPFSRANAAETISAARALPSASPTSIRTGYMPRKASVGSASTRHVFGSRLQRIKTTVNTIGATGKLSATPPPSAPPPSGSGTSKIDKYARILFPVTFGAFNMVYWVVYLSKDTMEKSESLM
# T1 sequence (P28472 26-473): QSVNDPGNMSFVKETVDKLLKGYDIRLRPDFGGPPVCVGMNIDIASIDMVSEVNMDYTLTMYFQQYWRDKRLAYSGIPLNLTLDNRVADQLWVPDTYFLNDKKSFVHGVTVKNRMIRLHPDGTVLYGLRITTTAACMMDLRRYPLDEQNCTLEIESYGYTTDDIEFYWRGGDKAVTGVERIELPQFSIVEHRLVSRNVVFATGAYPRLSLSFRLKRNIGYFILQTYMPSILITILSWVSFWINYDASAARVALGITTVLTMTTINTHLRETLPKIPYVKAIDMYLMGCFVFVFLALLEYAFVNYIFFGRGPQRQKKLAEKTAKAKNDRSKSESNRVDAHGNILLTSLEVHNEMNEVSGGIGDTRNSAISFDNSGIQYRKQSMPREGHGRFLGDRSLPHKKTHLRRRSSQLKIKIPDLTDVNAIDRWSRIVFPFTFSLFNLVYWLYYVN
structure (smiles),measurement,setting,value
C=C[C@]12CCC(=O)C=C1CC[C@H]1[C@@H]3CC[C@H](C(C)=O)[C@@]3(C)CC[C@@H]12 [ORG OD 02-0],amplitude and density of GABAergic tonic current at varying doses,[1],dosage-dependent effect; also recorded: dosage dependent effect
same,GABA-evoked currents (IGABA) over time,[2],sustained increases
same,S408/9 phosphorylation in hippocampal slices,[3],regulated
same,acute modulation of GABA-evoked current (IGABA),[4],did not acutely modulate; also recorded: does not acutely modulate
